In PubChem BioAssay AID192 (DTP/NCI, 2004):
Where “and” joins values, the source holds several entries; their conditions need not be identical. Equal entries are not always repeated. Toxic doses and inconclusive results are not listed. The calls were made as follows: active = survival T/C of 150% or more; inactive = T/C below 125% in these data.

Tested on: BDF1 mice, B16 melanoma ip, median survival T/C
Assay: NCI In Vivo Anticancer Drug Screen. Data for tumor model B16 Melanoma (intraperitoneal) in B6D2F1 (BDF1) mice
Settings: endpoint: median survival time, higher = longer survival
Method in brief: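 Tumor-bearing mice received test compound or vehicle. Survival or tumor size was then measured in both groups. The treated-group figure was divided by the control-group figure.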

[1] = dose: 6.25 mg/kg/injection, schedule: Q01DX009 (ip), vehicle: saline
[2] = dose: 100.0 mg/kg/injection, schedule: Q01DX009 (ip), vehicle: Klucel (hydroxypropylcellulose) (HPC)
[3] = dose: 400.0 mg/kg/injection, schedule: Q01DX009 (ip), vehicle: Klucel (hydroxypropylcellulose) (HPC)
[4] = dose: 100.0 mg/kg/injection, schedule: Q01DX009 (ip), vehicle: saline with Tween-80
[5] = dose: 200.0 mg/kg/injection, schedule: Q01DX009 (ip), vehicle: saline with Tween-80
[6] = dose: 100.0 mg/kg/injection, schedule: Q04DX003 (ip), vehicle: Klucel (hydroxypropylcellulose) (HPC)
[7] = dose: 200.0 mg/kg/injection, schedule: Q01DX009 (ip), vehicle: Klucel (hydroxypropylcellulose) (HPC)
[8] = dose: 200.0 mg/kg/injection, schedule: Q04DX003 (ip), vehicle: Klucel (hydroxypropylcellulose) (HPC)
[9] = dose: 400.0 mg/kg/injection, schedule: Q04DX003 (ip), vehicle: Klucel (hydroxypropylcellulose) (HPC)
[10] = dose: 25.0 mg/kg/injection, schedule: Q04DX003 (ip), vehicle: saline with Tween-80
[11] = dose: 50.0 mg/kg/injection, schedule: Q04DX003 (ip), vehicle: saline with Tween-80
[12] = dose: 25.0 mg/kg/injection, schedule: Q01DX009 (ip), vehicle: saline
[13] = dose: 50.0 mg/kg/injection, schedule: Q01DX009 (ip), vehicle: saline
[14] = dose: 100.0 mg/kg/injection, schedule: Q01DX009 (ip), vehicle: saline
[15] = dose: 50.0 mg/kg/injection, schedule: Q01DX009 (ip), vehicle: Klucel (hydroxypropylcellulose) (HPC)

Measured: T/C

O=C(O)CCCc1ccc(N(CCCl)CCCl)cc1
inactive: dose: 0.37 mg/kg/injection, schedule: Q01DX009 (ip), vehicle: Klucel (hydroxypropylcellulose) (HPC) 100 % of control | dose: 0.5 mg/kg/injection, schedule: Q01DX009 (ip), vehicle: Klucel (hydroxypropylcellulose) (HPC) 93 % of control and 104 % of control | dose: 1.0 mg/kg/injection, schedule: Q01DX009 (ip), vehicle: Klucel (hydroxypropylcellulose) (HPC) 101 % of control and 104 % of control and 117 % of control | dose: 1.5 mg/kg/injection, schedule: Q01DX009 (ip), vehicle: Klucel (hydroxypropylcellulose) (HPC) 88 % of control and 89 % of control | dose: 1.88 mg/kg/injection, schedule: Q01DX009 (ip), vehicle: Klucel (hydroxypropylcellulose) (HPC) 112 % of control | dose: 2.0 mg/kg/injection, schedule: Q01DX009 (ip), vehicle: Klucel (hydroxypropylcellulose) (HPC) 100 % of control and 107 % of control and 109 % of control | dose: 2.0 mg/kg/injection, schedule: Q01DX017 (ip), vehicle: saline 109 % of control | dose: 3.0 mg/kg/injection, schedule: Q01DX009 (ip), vehicle: Klucel (hydroxypropylcellulose) (HPC) 86 % of control and 87 % of control | dose: 3.13 mg/kg/injection, schedule: Q01DX009 (ip), vehicle: saline 100 % of control | dose: 3.75 mg/kg/injection, schedule: Q01DX009 (ip), vehicle: Klucel (hydroxypropylcellulose) (HPC) 110 % of control | dose: 4.0 mg/kg/injection, schedule: Q01DX009 (ip), vehicle: Klucel (hydroxypropylcellulose) (HPC) 108 % of control and 109 % of control and 118 % of control | dose: 4.0 mg/kg/injection, schedule: Q01DX009 (ip), vehicle: saline 104 % of control | dose: 4.0 mg/kg/injection, schedule: Q01DX017 (ip), vehicle: saline 121 % of control | dose: 6.0 mg/kg/injection, schedule: Q01DX009 (ip), vehicle: Klucel (hydroxypropylcellulose) (HPC) 89 % of control and 118 % of control | [1] 104 % of control | dose: 7.5 mg/kg/injection, schedule: Q01DX009 (ip), vehicle: Klucel (hydroxypropylcellulose) (HPC) 116 % of control | dose: 8.0 mg/kg/injection, schedule: Q01DX001 (ip), vehicle: saline 95 % of control | dose: 8.0 mg/kg/injection, schedule: Q01DX009 (ip), vehicle: Klucel (hydroxypropylcellulose) (HPC) 111 % of control and 120 % of control | dose: 8.0 mg/kg/injection, schedule: Q01DX009 (ip), vehicle: saline 119 % of control | dose: 8.0 mg/kg/injection, schedule: Q04DX003 (ip), vehicle: saline 122 % of control | dose: 12.0 mg/kg/injection, schedule: Q01DX009 (ip), vehicle: Klucel (hydroxypropylcellulose) (HPC) 100 % of control | dose: 16.0 mg/kg/injection, schedule: Q01DX001 (ip), vehicle: saline 118 % of control | dose: 16.0 mg/kg/injection, schedule: Q01DX009 (ip), vehicle: saline 121 % of control | dose: 16.0 mg/kg/injection, schedule: Q04DX003 (ip), vehicle: saline 122 % of control

CC1CCCN(c2ccc([N+](=O)[O-])cc2[N+](=O)[O-])C1 (stereo not drawn)
inactive: [2] 93 % of control | [3] 100 % of control

CN(C)N=Nc1c(Cl)cc(Cl)cc1C(N)=O
inactive: [4] 119 % of control | [5] 115 % of control

Cc1cc(C)cc(-n2nnc3ccccc3c2=O)c1
inactive: [2] 108 % of control | [6] 95 % of control | [7] 100 % of control | [8] 91 % of control | [3] 86 % of control | [9] 93 % of control

O=C(O)CC(Br)C(=O)c1ccccc1 (stereo not drawn)
inactive: dose: 12.5 mg/kg/injection, schedule: Q04DX003 (ip), vehicle: saline with Tween-80 93 % of control | [10] 86 % of control | [11] 88 % of control

O=C(Nc1ccc2c(c1)Cc1cc(Br)ccc1-2)C(F)(F)F
inactive: [10] 103 % of control | [11] 109 % of control | dose: 100.0 mg/kg/injection, schedule: Q04DX003 (ip), vehicle: saline with Tween-80 95 % of control and 96 % of control | dose: 400.0 mg/kg/injection, schedule: Q04DX003 (ip), vehicle: saline with Tween-80 86 % of control

COc1cc(C=Nc2cccc(C(F)(F)F)c2)ccc1O
inactive: [2] 99 % of control | [7] 94 % of control

Nc1nc(Cl)nc2c1ncn2C1OC(CO)C(O)C1O (stereo not drawn)
inactive: [12] 95 % of control | [13] 93 % of control | [14] 95 % of control

COc1ccc2nc3cc(Cl)ccc3c(NCCO)c2c1
inactive: dose: 37.5 mg/kg/injection, schedule: Q01DX009 (ip), vehicle: saline with Tween-80 104 % of control | dose: 75.0 mg/kg/injection, schedule: Q01DX009 (ip), vehicle: saline with Tween-80 106 % of control

c1ccc(-c2nn3c(-c4ccccc4)nnc3o2)cc1
inactive: [4] 93 % of control | [5] 92 % of control | dose: 400.0 mg/kg/injection, schedule: Q01DX009 (ip), vehicle: saline with Tween-80 92 % of control

NC(=S)N/N=C\c1ncnc2ccccc12
inactive: dose: 6.25 mg/kg/injection, schedule: Q01DX009 (ip), vehicle: Klucel (hydroxypropylcellulose) (HPC) 124 % of control

COc1cc2c(cc1OC)[C@H]1CNC[C@H]1[C@@H](c1ccccc1)C2
inactive: [13] 123 % of control | [14] 114 % of control

OCC1OC(n2cnc3c(=S)nc[nH]c32)CC1O (stereo not drawn)
inactive: [15] 97 % of control | [2] 92 % of control

CC(O)c1ccc[n+](CCc2cn(C)c3ccccc23)c1 (stereo not drawn)
inactive: [1] 107 % of control | dose: 12.5 mg/kg/injection, schedule: Q01DX009 (ip), vehicle: saline 113 % of control | [12] 104 % of control

CC(C)Cc1ccc(OC(=O)Nc2ccc(Cl)cc2)cc1
inactive: dose: 6.25 mg/kg/injection, schedule: Q01DX009 (ip), vehicle: saline with Tween-80 97 % of control | dose: 12.5 mg/kg/injection, schedule: Q01DX009 (ip), vehicle: saline with Tween-80 100 % of control | dose: 25.0 mg/kg/injection, schedule: Q01DX009 (ip), vehicle: saline with Tween-80 91 % of control and 98 % of control

CC(=O)NC(=O)Nc1ccccc1
inactive: [6] 97 % of control | [8] 95 % of control | [9] 100 % of control

COC(=O)C(N)CSCc1ccccc1 (stereo not drawn)
inactive: [14] 95 % of control | dose: 200.0 mg/kg/injection, schedule: Q01DX009 (ip), vehicle: saline 106 % of control

C[CH2][Pb]([CH2]C)([CH2]C)[O][As](=O)(O)c1ccc(N)cc1
inactive: dose: 1.5 mg/kg/injection, schedule: Q01DX009 (ip), vehicle: saline 98 % of control | dose: 3.0 mg/kg/injection, schedule: Q01DX009 (ip), vehicle: saline 96 % of control

O=C(O)CCC(=O)CCC(=O)c1ccccc1
inactive: dose: 50.0 mg/kg/injection, schedule: Q01DX009 (ip), vehicle: saline with Tween-80 95 % of control | [4] 100 % of control | [5] 93 % of control

O=C1OC(=O)C2C3C=CC(C3=C(c3ccccc3)c3ccccc3)C12 (stereo not drawn)
inactive: dose: 0.78 mg/kg/injection, schedule: Q04DX009 (ip), vehicle: Klucel (hydroxypropylcellulose) (HPC) 115 % of control | dose: 1.56 mg/kg/injection, schedule: Q04DX009 (ip), vehicle: Klucel (hydroxypropylcellulose) (HPC) 121 % of control | dose: 3.13 mg/kg/injection, schedule: Q04DX009 (ip), vehicle: Klucel (hydroxypropylcellulose) (HPC) 106 % of control

CCOc1ccc(N2CSC(=S)N(c3ccc(OCC)cc3)C2)cc1
inactive: [15] 99 % of control | [2] 94 % of control | [7] 88 % of control
